# Laboratory results published in the NIST ThermoML archive (doi:10.1016/j.fluid.2012.08.024).
# Numbers after ± are expanded uncertainties.
# Legend:
# [1] = mn = molality of the nth substance listed, in mol/kg; details: 298.15 K, 101 kPa, Liquid; for mass density: Vibrating tube method; for molar conductivity: Alternating current cell with electrodes
# [2] = refractive index (Na D-line) (dimensionless); mn = molality of the nth substance listed, in mol/kg; details: 298.15 K, 101 kPa, Liquid, Standard Abbe refractometry
smiles,measurement,setting,value
O=C[C@H](O)[C@@H](O)[C@H](O)[C@H](O)CO [D-glucose] + O,mass density,[1]; m1 = 0.0104,997.75 ± 0.29 kg/m3
same,mass density,[1]; m1 = 0.03,999.09 ± 0.29 kg/m3
same,mass density,[1]; m1 = 0.05,1000.45 ± 0.29 kg/m3
same,mass density,[1]; m1 = 0.0705,1001.83 ± 0.29 kg/m3
same,mass density,[1]; m1 = 0.0899,1003.13 ± 0.29 kg/m3
same,mass density,[1]; m1 = 0.1102,1004.48 ± 0.3 kg/m3
same,refractive index,[2]; m1 = 0.0104,1.3328 ± 0.0004
same,refractive index,[2]; m1 = 0.03,1.3334 ± 0.0004
same,refractive index,[2]; m1 = 0.05,1.3339 ± 0.0004
same,refractive index,[2]; m1 = 0.0705,1.3343 ± 0.0004
same,refractive index,[2]; m1 = 0.0899,1.3349 ± 0.0004
same,refractive index,[2]; m1 = 0.1102,1.3352 ± 0.0004
same,refractive index,[2]; m1 = 0.1301,1.3357 ± 0.0004
same,refractive index,[2]; m1 = 0.1496,1.3361 ± 0.0004
same,refractive index,[2]; m1 = 0.1691,1.3366 ± 0.0004
CCCCCCn1cc[n+](C)c1.[Br-] [3-hexyl-1-methyl-1H-imidazolium bromide] + O,molar conductivity,[1]; m1 = 0.3716,0.01169 ± 4.2e-05 S·m2/mol
same,molar conductivity,[1]; m1 = 0.9047,0.01149 ± 4.2e-05 S·m2/mol
same,molar conductivity,[1]; m1 = 1.268,0.01134 ± 4.2e-05 S·m2/mol
same,molar conductivity,[1]; m1 = 1.963,0.01117 ± 4.2e-05 S·m2/mol
same,molar conductivity,[1]; m1 = 2.512,0.01099 ± 4.2e-05 S·m2/mol
same,molar conductivity,[1]; m1 = 3.102,0.01085 ± 4.2e-05 S·m2/mol
same,molar conductivity,[1]; m1 = 3.708,0.01072 ± 4.2e-05 S·m2/mol
same,molar conductivity,[1]; m1 = 4.273,0.01055 ± 4.2e-05 S·m2/mol
same,molar conductivity,[1]; m1 = 4.944,0.01044 ± 4.2e-05 S·m2/mol
same,molar conductivity,[1]; m1 = 5.55,0.01034 ± 4.2e-05 S·m2/mol
same,mass density,[1]; m1 = 0.1017,1001.8 ± 0.29 kg/m3
same,mass density,[1]; m1 = 0.2038,1006.13 ± 0.3 kg/m3
same,mass density,[1]; m1 = 0.3005,1010.26 ± 0.3 kg/m3
same,mass density,[1]; m1 = 0.4033,1014.58 ± 0.31 kg/m3
